Settings in all cases: TE-671
For assay [1], the target named is Acetylcholine receptor subunit alpha (Homo sapiens) (UniProt P02708).
Description: Proteolytic properties against human muscle type nicotinic Acetylcholine receptor(nAchr) from TE671 cells, expressed as acidity constant (pKa1)
Assay [2] shares this target. The source holds these as a separate data set.
Description: Proteolytic properties against human muscle type nicotinic Acetylcholine receptor(nAchr) from TE671 cells, expressed as acidity constant (pKa3)
Assay [3] has the same target. This is another data set of the same source.
Description: Proteolytic properties against human muscle type nicotinic Acetylcholine receptor(nAchr) from TE671 cells, expressed as acidity constant (pKa2)
The target is the same in assay [4]. The assay can be described thus: […] properties against human muscle type nicotinic Acetylcholine receptor (nAchr) from TE671 cells, expressed as acidity constant (pKa1). Format: functional, cell-based.

Chain of Acetylcholine receptor subunit alpha (Homo sapiens) (P02708 whole entry): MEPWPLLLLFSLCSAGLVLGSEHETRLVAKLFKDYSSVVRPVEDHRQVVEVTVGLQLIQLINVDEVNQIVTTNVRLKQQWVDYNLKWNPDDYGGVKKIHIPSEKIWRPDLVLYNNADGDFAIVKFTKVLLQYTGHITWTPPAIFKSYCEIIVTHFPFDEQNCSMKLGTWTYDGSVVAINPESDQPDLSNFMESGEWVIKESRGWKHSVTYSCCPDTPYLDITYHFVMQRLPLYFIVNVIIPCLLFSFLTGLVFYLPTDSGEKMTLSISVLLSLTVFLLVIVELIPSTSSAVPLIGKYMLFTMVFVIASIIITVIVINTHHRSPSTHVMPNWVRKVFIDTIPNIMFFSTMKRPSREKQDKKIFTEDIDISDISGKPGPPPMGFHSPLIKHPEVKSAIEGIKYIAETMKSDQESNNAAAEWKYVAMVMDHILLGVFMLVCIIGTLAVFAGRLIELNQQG

Turning to `CCCC(=O)NC(Cc1ccc(O)cc1)C(=O)NCCCCCCCCNCCCN` (stereo unspecified), the pKa1 in assay [1] stood at 9.32. Besides, the pKa3 in assay [2] is 11.4. The molecule further registered a pKa2 in assay [3] of 10.2.
Taken in the same sequence, the figures for `CCCC(=O)NC(Cc1ccc(O)cc1)C(=O)NCCCOCCCCNCCCN` (stereo unspecified) were 9.23, 11.3 and 10.3.
Taken in the same sequence, the figures for `CCCC(=O)NC(Cc1ccc(O)cc1)C(=O)NCCCNCCCCCCCCN` (stereo unspecified) were 9.71, 11.3 and 10.4.
The molecule `CCCC(=O)NC(Cc1ccc(O)cc1)C(=O)NCCCCCCCCCCCCN` (stereo unspecified) registered a pKa1 in assay [4] of 10.3. Further, the pKa2 in assay [3] was 11.3.
In turn, `CCCC(=O)NC(Cc1ccc(O)cc1)C(=O)NCCCOCCCCOCCCN` (stereo unspecified) showed a pKa1 in assay [4] of 10. Also, the pKa2 in assay [3] stood at 10.9.
As to `CCCC(=O)NC(Cc1ccc(O)cc1)C(=O)NCCCNCCCCOCCCN` (stereo unspecified), the pKa1 in assay [1] was found to be 9.47. In addition, the pKa3 in assay [2] amounted to 10.9. Moreover, the pKa2 in assay [3] came to 10.2.

The record behind these values is ChEMBL document CHEMBL1132165, “Analogues of neuroactive polyamine wasp toxins that lack inner basic sites exhibit enhanced antagonism toward a muscle-type mammalian nicotinic acetylcholine receptor” (J Med Chem, 1999).
